Test results: ChEMBL document CHEMBL2311427, “Bioactive barrigenol type triterpenoids from the leaves of Xanthoceras sorbifolia Bunge” (Eur J Med Chem, 2013)

Legend:
Assay type in all cases: functional, cell-based
HepG2 = assay: Antitumor activity against human HepG2 cells assessed as growth inhibition measured after 48 hrs by MTT assay; conditions: HepG2, 48 h
HeLa = assay: Antitumor activity against human HeLa cells assessed as growth inhibition measured after 48 hrs by MTT assay
MCF7 = assay: Antitumor activity against human MCF7 cells assessed as growth inhibition measured after 48 hrs by MTT assay; conditions: MCF7, 48 h

Compound | IC50 (HepG2) [µM] | IC50 (HeLa) [µM] | IC50 (MCF7) [µM]
C[C@@H]1O[C@@H](O[C@H]2[C@H](OC[C@@]34CC[C@]5(C)C(=CC[C@@H]6[C@@]7(C)CC[C@H](O[C@@H]8O[C@H](CO[C@@H]9O[C@H](CO)[C@@H](O)[C@H](O)[C@H]9O)[C@@H](O)[C@H](O)[C@H]8O)C(C)(C)[C@@H]7CC[C@]65C)[C@@H]3CC(C)(C)[C@@H](O)[C@@H]4O)O[C@H](CO)[C@@H](O)[C@@H]2O)[C@H](O)[C@H](O)[C@H]1O | 31.5 | 18.8 | 25.4
C[C@@H]1O[C@@H](O[C@H]2[C@H](OC[C@@]34CC[C@]5(C)C(=CC[C@@H]6[C@@]7(C)CC[C@H](O[C@@H]8O[C@H](CO[C@@H]9O[C@H](CO)[C@@H](O)[C@H](O)[C@H]9O)[C@@H](O)[C@H](O)[C@H]8O)C(C)(C)[C@@H]7CC[C@]65C)[C@@H]3CC(C)(C)[C@@H](O)[C@@H]4O)O[C@H](CO[C@@H]3O[C@H](CO)[C@@H](O)[C@H](O)[C@H]3O)[C@@H](O)[C@@H]2O)[C@H](O)[C@H](O)[C@H]1O [XANIFOLIA O54] | 7.25 | 3.98 | 7.29
C/C=C(/C)C(=O)O[C@H]1[C@H](OC(=O)/C(C)=C\C)[C@]2(CO)[C@H](O)[C@H](O)[C@]3(C)C(=CC[C@@H]4[C@@]5(C)CC[C@H](O[C@@H]6O[C@H](CO[C@@H]7O[C@H](CO)[C@@H](O)[C@H](O)[C@H]7O)[C@@H](O)[C@H](O)[C@H]6O[C@@H]6O[C@@H](CO)[C@H](O)[C@H]6O)C(C)(C)[C@@H]5CC[C@]43C)[C@@H]2CC1(C)C | 9.21 | 7.56 | 9.62
C/C=C(/C)C(=O)O[C@@H]1[C@@H](O)[C@H](O[C@H]2CC[C@]3(C)[C@H]4CC=C5[C@@H]6CC(C)(C)[C@@H](O)[C@H](O)[C@]6(CO[C@@H]6O[C@H](CO[C@@H]7O[C@H](CO)[C@@H](O)[C@H](O)[C@H]7O)[C@@H](O)[C@H](O)[C@H]6O[C@@H]6O[C@@H](C)[C@H](O)[C@@H](O)[C@H]6O)CC[C@@]5(C)[C@]4(C)CC[C@H]3C2(C)C)O[C@H](CO[C@@H]2O[C@H](CO)[C@@H](O)[C@H](O)[C@H]2O)[C@H]1O | > 100 | > 100 | > 100
O=c1[nH]cc(F)c(=O)[nH]1 [FLUOROURACIL] | > 100 | 14.8 | > 100
C/C=C(/C)C(=O)O[C@H]1[C@H](O[C@H]2CC[C@]3(C)[C@H]4CC=C5[C@@H]6CC(C)(C)[C@@H](O)[C@H](O)[C@]6(CO[C@@H]6O[C@H](CO[C@@H]7O[C@H](CO)[C@@H](O)[C@H](O)[C@H]7O)[C@@H](O)[C@H](O)[C@H]6O[C@@H]6O[C@@H](C)[C@H](O)[C@@H](O)[C@H]6O)CC[C@@]5(C)[C@]4(C)CC[C@H]3C2(C)C)O[C@H](CO[C@@H]2O[C@H](CO)[C@@H](O)[C@H](O)[C@H]2O)[C@@H](O)[C@@H]1O | > 100 | > 100 | > 100
C/C=C(/C)C(=O)O[C@H]1[C@H](OC(=O)/C(C)=C\C)[C@]2(CO)[C@H](O)[C@H](O)[C@]3(C)C(=CC[C@@H]4[C@@]5(C)CC[C@H](O[C@@H]6O[C@H](C(=O)OC)[C@@H](O)[C@H](O)[C@H]6O[C@@H]6O[C@H](CO)[C@@H](O)[C@H](O)[C@H]6O)C(C)(C)[C@@H]5CC[C@]43C)[C@@H]2CC1(C)C | 43.7 | 81.6 | > 100
COc1cc([C@@H]2c3cc4c(cc3[C@@H](O[C@@H]3O[C@@H]5CO[C@@H](C)O[C@H]5[C@H](O)[C@H]3O)[C@H]3COC(=O)[C@H]23)OCO4)cc(OC)c1O [ETOPOSIDE] | 9.14 | 8.32 | 59.8
Oc1ccc(/C=C/c2cc(O)cc(O)c2)cc1 [RESVERATROL] | > 100 | 58.9 | > 100
CC(=O)O[C@H]1C(=O)[C@@]2(C)[C@H]([C@H](OC(=O)c3ccccc3)[C@]3(O)C[C@H](OC(=O)[C@H](O)[C@@H](NC(=O)c4ccccc4)c4ccccc4)C(C)=C1C3(C)C)[C@]1(OC(C)=O)CO[C@@H]1C[C@@H]2O [PACLITAXEL] | 61.8 | – | 77.2
